Experiments:
Tryptase = Tryptase (Homo sapiens, UniProt Q9BZJ3+Q15661+Q9NRR2); assay: Inhibitory activity of compound against human tryptase was determined; type: protein assay
[1] = Half-life of compound was determined at pH 9; type: ADME
[2] = Half-life of compound was determined at pH 7; type: ADME
Coagulation factor X = Coagulation factor X (Homo sapiens, UniProt P00742); assay: Inhibitory activity of compound against Coagulation factor X was determined
Plasminogen = Plasminogen (Rattus norvegicus, UniProt Q01177); assay: Inhibitory activity of compound against Plasmin was determined
Plasminogen, sequence (Q01177 97-581 limits assumed): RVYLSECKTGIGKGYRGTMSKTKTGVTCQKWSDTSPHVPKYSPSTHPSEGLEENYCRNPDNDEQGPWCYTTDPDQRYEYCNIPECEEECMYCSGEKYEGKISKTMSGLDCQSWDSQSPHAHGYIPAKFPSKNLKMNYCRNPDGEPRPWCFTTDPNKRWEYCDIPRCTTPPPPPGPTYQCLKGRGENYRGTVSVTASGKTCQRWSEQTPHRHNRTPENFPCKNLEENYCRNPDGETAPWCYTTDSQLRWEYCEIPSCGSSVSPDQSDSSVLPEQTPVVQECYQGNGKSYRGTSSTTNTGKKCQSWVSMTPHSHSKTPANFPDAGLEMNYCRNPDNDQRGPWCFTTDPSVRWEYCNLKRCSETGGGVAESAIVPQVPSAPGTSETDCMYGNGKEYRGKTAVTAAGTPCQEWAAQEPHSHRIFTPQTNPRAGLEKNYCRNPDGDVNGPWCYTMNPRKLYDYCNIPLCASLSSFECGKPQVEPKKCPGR
Plasminogen, sequence (Q01177 582-812 limits assumed): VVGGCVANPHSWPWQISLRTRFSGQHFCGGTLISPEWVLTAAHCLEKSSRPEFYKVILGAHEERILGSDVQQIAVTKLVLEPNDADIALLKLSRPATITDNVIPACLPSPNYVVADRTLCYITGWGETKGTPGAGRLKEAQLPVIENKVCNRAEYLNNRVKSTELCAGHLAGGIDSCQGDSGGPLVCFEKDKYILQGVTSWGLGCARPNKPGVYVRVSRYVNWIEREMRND

Prothrombin = Prothrombin (Homo sapiens, UniProt P00734); assay: Inhibitory activity of compound against Thrombin was determined
[3] = molecular target: Tissue-type plasminogen activator (Homo sapiens, UniProt P00750); assay: Inhibitory activity of compound against tissue type plasminogen activator was determined
Tissue-type plasminogen activator, sequence (P00750 whole entry): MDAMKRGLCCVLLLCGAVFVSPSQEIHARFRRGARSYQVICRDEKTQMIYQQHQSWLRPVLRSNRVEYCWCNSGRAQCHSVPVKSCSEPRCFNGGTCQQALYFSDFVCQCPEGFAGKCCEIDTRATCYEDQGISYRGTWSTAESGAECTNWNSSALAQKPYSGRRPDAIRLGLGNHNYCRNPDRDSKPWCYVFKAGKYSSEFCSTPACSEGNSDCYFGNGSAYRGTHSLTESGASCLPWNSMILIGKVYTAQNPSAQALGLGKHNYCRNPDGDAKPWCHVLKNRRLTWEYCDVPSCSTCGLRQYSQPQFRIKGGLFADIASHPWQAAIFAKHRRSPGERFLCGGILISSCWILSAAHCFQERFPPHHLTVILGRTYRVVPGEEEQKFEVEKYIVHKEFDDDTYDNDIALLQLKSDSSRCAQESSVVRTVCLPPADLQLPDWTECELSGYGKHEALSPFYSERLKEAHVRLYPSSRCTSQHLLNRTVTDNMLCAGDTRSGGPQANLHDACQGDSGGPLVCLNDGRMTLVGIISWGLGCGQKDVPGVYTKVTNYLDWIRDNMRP

[4] = molecular target: Urokinase-type plasminogen activator (Homo sapiens, UniProt P00749); assay: Inhibitory activity of compound against Urokinase-type plasminogen activator was determined
Serine protease 1 = Serine protease 1 (Homo sapiens, UniProt P07477); assay: Inhibitory activity of compound against Trypsin was determined
Serine protease 1, sequence (P07477 whole entry): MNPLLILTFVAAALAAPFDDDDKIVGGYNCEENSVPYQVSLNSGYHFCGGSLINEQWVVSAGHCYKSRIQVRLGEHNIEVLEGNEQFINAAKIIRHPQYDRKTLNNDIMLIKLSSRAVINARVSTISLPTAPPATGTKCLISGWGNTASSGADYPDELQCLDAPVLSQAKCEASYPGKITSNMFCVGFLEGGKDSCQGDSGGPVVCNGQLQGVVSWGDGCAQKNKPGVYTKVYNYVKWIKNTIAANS

Coagulation factor X, sequence (P00742 41-179 limits assumed): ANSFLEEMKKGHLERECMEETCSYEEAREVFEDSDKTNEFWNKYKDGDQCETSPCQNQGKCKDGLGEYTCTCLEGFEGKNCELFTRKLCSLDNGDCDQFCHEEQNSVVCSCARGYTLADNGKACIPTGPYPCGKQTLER
Coagulation factor X, sequence (P00742 235-488 limits assumed): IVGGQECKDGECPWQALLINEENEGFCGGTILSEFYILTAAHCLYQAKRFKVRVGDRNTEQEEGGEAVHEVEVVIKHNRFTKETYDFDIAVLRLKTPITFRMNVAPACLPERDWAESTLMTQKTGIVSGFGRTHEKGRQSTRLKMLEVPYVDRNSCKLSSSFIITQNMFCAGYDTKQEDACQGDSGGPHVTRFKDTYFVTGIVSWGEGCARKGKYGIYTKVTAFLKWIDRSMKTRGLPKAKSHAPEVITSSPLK

Structure (SMILES) | IC50 (Tryptase) | also measured
Nc1ccccn1 [2-AMINOPYRIDINE] |  | pKa (physchem): 7
CC(C)C(OC(=O)N1CCN(C(=O)N2C(=O)[C@H](Cc3cccc(CN)c3)[C@H]2C(=O)O)CC1)C(C)C | 19 nM | 
CC(C)C(OC(=O)N1CCN(C(=O)N2C(=O)[C@H](CCCCN)[C@H]2C(=O)O)CC1)C(C)C | 7 nM | 
CC(C)C(OC(=O)N1CCN(C(=O)N2C(=O)[C@H](CCCCCN)[C@H]2C(=O)O)CC1)C(C)C | 34 nM | 
O=C(O)[C@@H]1[C@@H](CC2CCNCC2)C(=O)N1C(=O)N1CCN(C(=O)CCCCCc2ccccc2)CC1 | 1 nM | half-life [1]: 35 h; half-life [2]: > 48 h
CC(C)C(OC(=O)N1CCN(C(=O)N2C(=O)[C@H](CCCCCCN)[C@H]2C(=O)O)CC1)C(C)C | 32 nM | 
CC(C)C(OC(=O)N1CCN(C(=O)N2C(=O)[C@H](Cc3ccc(CN)cc3)[C@H]2C(=O)O)CC1)C(C)C | 211 nM | 
O=C(O)[C@@H]1[C@@H](CC2CCNCC2)C(=O)N1C(=O)Nc1ccccc1 | 147 nM | 
N=C(N)N1CCC(C[C@H]2C(=O)N(C(=O)Nc3ccccc3)[C@@H]2C(=O)O)CC1 | 515 nM | 
CC(C)C(OC(=O)N1CCN(C(=O)N2C(=O)[C@H](CCC3CCNCC3)[C@H]2C(=O)O)CC1)C(C)C | 1214 nM | 
CC(C)C(OC(=O)N1CCN(C(=O)N2C(=O)[C@H](CCCCN=C(N)N)[C@H]2C(=O)O)CC1)C(C)C (single isomer, unassigned) | 39 nM | 
CC(C)C(OC(=O)N1CCN(C(=O)N2C(=O)[C@H](CC3CCNC3)[C@H]2C(=O)O)CC1)C(C)C (stereo not given in full) | 2605 nM | 
CC(C)C(OC(=O)N1CCN(C(=O)N2C(=O)[C@H](CC3CCNCC3)[C@H]2C(=O)O)CC1)C(C)C | 29 nM | IC50 (Coagulation factor X): > 33000 nM; IC50 (Plasminogen): 6220 nM; IC50 (Prothrombin): > 33000 nM; IC50 [3]: > 33000 nM; IC50 [4]: 7000 nM; IC50 (Serine protease 1): 935 nM
O=C(O)[C@@H]1[C@@H](CCC2CCCNC2)C(=O)N1C(=O)N1CCN(C(=O)CCCCCc2ccccc2)CC1 (stereo not given in full) | 1.8 nM | IC50 (Coagulation factor X): > 33000 nM; IC50 (Plasminogen): 309 nM; IC50 (Prothrombin): > 33000 nM; IC50 [3]: > 33000 nM; IC50 [4]: > 33000 nM; IC50 (Serine protease 1): 10000 nM
N=C(N)N1CCC[C@H](C[C@H]2C(=O)N(C(=O)N3CCN(C(=O)CCCCCc4ccccc4)CC3)[C@@H]2C(=O)O)C1 | < 1.7 nM | 
CC(C)C(OC(=O)N1CCN(C(=O)N2C(=O)[C@H](Cc3ccc(N)nc3)[C@H]2C(=O)O)CC1)C(C)C | 1053 nM | 
NCCCC[C@H]1C(=O)N(C(=O)N2CCN(C(=O)CCCCCc3ccccc3)CC2)[C@@H]1C(=O)O | < 1.7 nM | 
CC(C)C(OC(=O)N1CCN(C(=O)N2C(=O)[C@H](CC3CCCNC3)[C@H]2C(=O)O)CC1)C(C)C (stereo not given in full) | 17899 nM | 
N=C(N)N1CCC[C@@H](C[C@H]2C(=O)N(C(=O)N3CCN(C(=O)CCCCCc4ccccc4)CC3)[C@@H]2C(=O)O)C1 | < 1.7 nM | 
CC(C)C(OC(=O)N1CCN(C(=O)N2C(=O)[C@H](CCCN)[C@H]2C(=O)O)CC1)C(C)C | > 33000 nM | 
CC(C)C(OC(=O)N1CCN(C(=O)N2C(=O)[C@H](Cc3ccnc(N)c3)[C@H]2C(=O)O)CC1)C(C)C | 61 nM | 
